Reference: patent publication US9066516B2, “Uses of thaxtomin and thaxtomin compositions as herbicides” (priority 2008, dated 2015)

Columns and labels:
Format in all cases: in vivo
common water plantain = test: Greenhouse test cyhalofop + thaxtomin A (Example 7); conditions: Cyhalofop 6.5 oz/acre, no thx A; 21-day evaluation
Experimental: (§1) Cyhalofop (2-[4-(4-cyano-2-fluorophenoxy)phenoxy]propanoic acid, butyl ester) is also mixed together with adjuvant containing ethyl oleate, polyethylene dialky ester and ethoxylated nonylphenol (2.5% v/v) and increasing concentrations of thaxtomin A (purified from the ATCC strain 49003) at concentrations 0.1, 0.2 and 0.4 mg/ml. The concentrations of the 2-[4-(4-cyano-fluorophenoxy)phenoxy]propanoic acid, butyl ester before dilution are 29.6% (2.38 lb/gal) and 21.7% (2 lb/gal), respectively. The effect of these mixtures on the growth of common water plantain, red stem, smallflower sedge and sprangletop is determined in the greenhouse. Similarly, rice plants of variety M104 are grown and tested for phytotoxic effects, and all plants are evaluated 7, 14, and 21 days after treatment.

red stem = test: as above; conditions: Cyhalofop 6.5 oz/acre, no thx A; 21-day evaluation
Experimental: as §1

smallflower sedge = test: as above; conditions: Cyhalofop 6.5 oz/acre, no thx A, 21-day evaluation
Experimental: as §1

sprangletop = test: as above; conditions: Cyhalofop 6.5 oz/acre, no thx A, 21-day evaluation
Experimental: as §1

broad-leaf mustard = test: Greenhouse synergy test MBI-005 + commercial herbicides (Example 11); conditions: cyhalofop 0.051 mg/mL, 14 days
Experimental: (§2) The test species barnyard grass, ragweed, sedge, and broad-leaf mustard were used for the valuation of synergy between MBI-005 and the rice herbicides clomazone, penoxsulam, cyhalofop, fenoxaprop-p-ethyl, bispyribac-sodium, thiobencarb, and propanil.
(§3) There were 3 replicates per treatment which were sprayed with approximately ⅔ ml per replicate. The treatments were completely randomized and kept in a greenhouse at 25° C. The efficacy was rated at 7 and 14 days post treatment.

sedge = test: as above; conditions: cyhalofop 1.176 mg/mL, 14 days
Experimental: as §2, §3

What does the source list for `CCCCOC(=O)C(C)Oc1ccc(Oc2ccc(C#N)cc2F)cc1` (centres unmarked) [Cyhalofop, 2-[4-(4-cyano-2-fluorophenoxy)phenoxy]propanoic acid, butyl ester]?
Waterplantain % control (common water plantain): 8%; Redstem % control (red stem): 75%; Sedge % control (smallflower sedge): 0%; Sedge % control (smallflower sedge; listed as Clincher CA): poor on sedges; Sprangletop % control (sprangletop): 90%; Sprangletop % control (sprangletop; listed as Clincher CA): good efficacy against grass weeds; % Control Product (broad-leaf mustard): 11.7%; % Control Product (sedge): 3.3%
